# Assays:
# Assay in all cases: relative viability (nuclei count vs DMSO), 5 days (fraction); higher = more cells survive
# Erlotinib + Linsitinib = compound: C#Cc1cccc(Nc2ncnc3cc(OCCOC)c(OCCOC)cc23)c1 [Erlotinib] + C[C@]1(O)C[C@@H](c2nc(-c3ccc4ccc(-c5ccccc5)nc4c3)c3c(N)nccn32)C1 [Linsitinib] (partner 1 µM)
# Method in brief: (§1)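 The day after seeding in 1536-well plates, lung cancer cell lines were treated by pin tool with a single drug, or with a fixed anchor-drug dose together with five library-drug doses (not always all listed) in √10 steps. After 5 days, a combined fix-and-stain solution (final 0.05% Triton X-100, 1% formaldehyde, 1 ug/ml Hoechst) was added. Nuclei counted on 4× images gave relative viability as treated counts over vehicle counts, reported as the median of duplicate plates.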
# Erlotinib + Olaparib = compound: C#Cc1cccc(Nc2ncnc3cc(OCCOC)c(OCCOC)cc23)c1 [Erlotinib] + O=C(c1cc(Cc2n[nH]c(=O)c3ccccc23)ccc1F)N1CCN(C(=O)C2CC2)CC1 [Olaparib] (partner 8 µM)
# Method in brief: as §1
# Erlotinib + Tozasertib = compound: C#Cc1cccc(Nc2ncnc3cc(OCCOC)c(OCCOC)cc23)c1 [Erlotinib] + Cc1cc(Nc2cc(N3CCN(C)CC3)nc(Sc3ccc(NC(=O)C4CC4)cc3)n2)n[nH]1 [Tozasertib] (partner 0.1 µM)
# Method in brief: as §1
# Erlotinib + Trametinib = compound: C#Cc1cccc(Nc2ncnc3cc(OCCOC)c(OCCOC)cc23)c1 [Erlotinib] + CC(=O)Nc1cccc(-n2c(=O)n(C3CC3)c(=O)c3c(Nc4ccc(I)cc4F)n(C)c(=O)c(C)c32)c1 [Trametinib] (partner 0.02 µM)
# Method in brief: as §1
# Erlotinib + Pictilisib = compound: C#Cc1cccc(Nc2ncnc3cc(OCCOC)c(OCCOC)cc23)c1 [Erlotinib] + CS(=O)(=O)N1CCN(Cc2cc3nc(-c4cccc5[nH]ncc45)nc(N4CCOCC4)c3s2)CC1 [Pictilisib] (partner 1 µM)
# Method in brief: as §1
Cell Line,relative viability (Erlotinib + Linsitinib; first compound 0.02 µM),relative viability (Erlotinib + Linsitinib; first compound 0.2 µM),relative viability (Erlotinib + Linsitinib; first compound 0.6325 µM),relative viability (Erlotinib + Linsitinib; first compound 2 µM),relative viability (Erlotinib + Olaparib; first compound 0.02 µM),relative viability (Erlotinib + Olaparib; first compound 0.2 µM),relative viability (Erlotinib + Olaparib; first compound 0.6325 µM),relative viability (Erlotinib + Olaparib; first compound 2 µM),relative viability (Erlotinib + Tozasertib; first compound 0.02 µM),relative viability (Erlotinib + Tozasertib; first compound 0.2 µM),relative viability (Erlotinib + Tozasertib; first compound 0.6325 µM),relative viability (Erlotinib + Tozasertib; first compound 2 µM),relative viability (Erlotinib + Trametinib; first compound 0.02 µM),relative viability (Erlotinib + Trametinib; first compound 0.2 µM),relative viability (Erlotinib + Trametinib; first compound 0.6325 µM),relative viability (Erlotinib + Trametinib; first compound 2 µM),relative viability (Erlotinib + Pictilisib; first compound 0.02 µM),relative viability (Erlotinib + Pictilisib; first compound 0.2 µM),relative viability (Erlotinib + Pictilisib; first compound 0.6325 µM),relative viability (Erlotinib + Pictilisib; first compound 2 µM)
LU99A,0.616,0.497,0.457,0.446,0.309,0.29,0.252,0.208,0.305,0.271,0.263,0.221,0.705,0.583,0.643,0.484,0.302,0.31,0.347,0.281
LXF-289,0.966,0.921,0.934,0.874,1.15,1.12,1.12,1.04,0.195,0.218,0.208,0.117,0.639,0.672,0.647,0.684,0.775,,0.798,0.704
NCI-H23,0.643,0.506,0.752,0.604,0.388,0.261,0.289,0.294,0.387,0.344,0.299,0.26,0.36,0.349,0.385,0.306,0.56,0.517,0.61,0.464
NCI-H322M,0.8,0.727,0.512,0.337,0.776,0.67,0.631,0.551,0.42,0.374,0.331,0.314,0.472,0.461,0.462,0.445,0.456,0.499,0.347,0.365
NCI-H358,0.817,0.558,0.377,0.292,0.583,0.599,0.403,0.199,0.0843,0.111,0.0963,0.0822,0.143,0.114,0.12,0.105,0.319,0.313,0.303,0.28
NCI-H460,0.804,0.647,,0.712,0.453,0.345,0.425,0.363,0.44,0.191,0.109,0.0585,0.104,0.129,0.131,0.0721,0.351,0.335,0.412,0.353
NCI-H520,0.98,0.915,1.03,0.965,0.413,0.343,0.37,0.335,0.427,0.471,0.466,0.432,0.689,0.666,0.744,0.687,0.262,0.279,0.335,0.298
NCI-H596,1.03,0.939,1.02,0.789,0.776,0.635,0.674,0.586,0.805,0.848,0.69,0.722,0.745,0.75,0.886,0.751,0.383,0.478,0.383,0.351
NCI-H647,1.2,1.15,1.19,0.971,0.556,0.541,0.594,0.243,0.257,0.179,0.28,0.136,0.653,0.367,0.556,0.422,0.445,0.359,0.499,0.46
NCI-H650,0.817,,1.06,0.843,0.419,0.389,,0.34,,,0.767,0.58,0.964,0.985,0.919,0.963,0.963,0.942,0.904,0.936
NCI-H661,0.731,0.432,0.663,0.493,0.801,0.79,0.74,0.615,0.344,0.381,0.341,0.394,0.601,0.483,0.593,0.457,0.333,,0.416,0.294
NCI-H727,0.284,0.349,0.282,0.232,0.696,0.947,0.607,0.721,0.616,0.51,0.493,0.424,0.392,0.387,0.351,0.379,0.456,0.344,0.346,0.339
NCI-H838,1.19,0.93,1.05,0.906,0.823,0.766,0.859,0.726,0.293,0.273,0.283,0.25,0.587,0.431,0.586,0.509,0.471,0.454,0.503,0.477
NCI-H1355,0.921,0.815,0.723,0.559,0.796,0.709,0.684,0.558,0.567,0.538,0.4,0.266,0.424,0.332,0.326,0.302,0.499,0.392,0.407,0.312
NCI-H1395,1.1,1.1,1.23,1.06,0.465,0.43,0.426,0.432,0.837,0.772,0.712,0.566,1.1,0.993,1.02,0.989,0.71,0.638,0.567,0.733
NCI-H1437,1.05,0.941,0.83,0.526,0.638,0.646,0.607,0.612,0.406,0.403,0.448,0.357,0.534,0.322,0.373,0.371,0.431,0.408,0.482,0.347

Cell Line,relative viability (Erlotinib + Linsitinib; first compound 0.02 µM),relative viability (Erlotinib + Linsitinib; first compound 0.2 µM),relative viability (Erlotinib + Linsitinib; first compound 0.6325 µM),relative viability (Erlotinib + Linsitinib; first compound 2 µM),relative viability (Erlotinib + Olaparib; first compound 0.02 µM),relative viability (Erlotinib + Olaparib; first compound 0.2 µM),relative viability (Erlotinib + Olaparib; first compound 0.6325 µM),relative viability (Erlotinib + Olaparib; first compound 2 µM),relative viability (Erlotinib + Tozasertib; first compound 0.02 µM),relative viability (Erlotinib + Tozasertib; first compound 0.2 µM),relative viability (Erlotinib + Tozasertib; first compound 0.6325 µM),relative viability (Erlotinib + Tozasertib; first compound 2 µM),relative viability (Erlotinib + Trametinib; first compound 0.02 µM),relative viability (Erlotinib + Trametinib; first compound 0.2 µM),relative viability (Erlotinib + Trametinib; first compound 0.6325 µM),relative viability (Erlotinib + Trametinib; first compound 2 µM),relative viability (Erlotinib + Pictilisib; first compound 0.02 µM),relative viability (Erlotinib + Pictilisib; first compound 0.2 µM),relative viability (Erlotinib + Pictilisib; first compound 0.6325 µM),relative viability (Erlotinib + Pictilisib; first compound 2 µM)
NCI-H1651,0.967,0.996,1.07,0.842,0.171,0.188,0.173,0.145,0.671,,0.606,0.282,0.881,0.814,0.877,0.84,0.511,0.628,0.662,0.5
NCI-H1666,0.82,0.696,0.62,0.496,0.787,0.793,0.676,0.645,0.551,0.523,0.498,0.482,0.904,0.736,0.78,0.709,0.466,0.329,0.317,0.267
NCI-H1734,0.946,0.849,0.966,0.776,0.61,0.588,0.583,0.545,0.259,0.238,0.273,0.273,0.74,0.718,0.619,0.634,0.494,0.474,0.542,
NCI-H1755,1.05,,0.955,0.976,0.942,0.892,0.888,0.818,,0.561,0.505,0.422,0.793,0.774,0.816,0.737,0.422,0.456,0.416,0.374
NCI-H1793,0.785,0.397,0.767,0.651,0.819,0.391,0.686,0.436,0.307,0.258,0.235,0.161,0.472,0.411,0.411,0.334,0.272,0.386,0.306,0.302
NCI-H1915,1.15,1.17,1.1,1.08,0.25,0.264,0.25,0.222,0.45,0.405,0.408,0.262,0.304,0.308,0.329,0.285,,,1.07,0.948
NCI-H1944,1.17,,0.776,0.642,0.396,0.311,0.382,0.304,0.249,0.21,0.227,0.174,0.385,0.326,0.361,0.295,0.357,0.304,0.346,0.33
NCI-H1975,0.954,0.974,0.991,,0.818,0.712,0.888,0.695,0.773,0.549,0.251,0.142,0.368,0.32,0.404,0.348,0.287,0.253,0.307,0.255
NCI-H1993,0.763,,0.728,0.85,0.91,0.606,0.748,0.658,0.574,0.518,0.569,0.591,0.597,0.491,0.497,0.465,0.807,0.745,0.946,0.901
NCI-H2009,1.26,1.15,1.2,1.22,0.783,0.73,0.792,0.627,0.751,0.746,0.834,0.62,0.385,0.306,0.301,0.239,0.836,0.763,0.943,0.732
NCI-H2023,0.721,0.574,0.428,0.496,0.46,0.43,0.54,0.432,0.365,0.241,0.165,0.188,0.558,0.369,0.418,0.32,0.3,,0.218,0.226
NCI-H2085,0.858,0.728,0.664,0.76,0.754,0.768,0.655,0.619,0.808,0.637,0.598,0.404,0.494,0.496,0.513,0.306,0.459,0.46,0.513,0.358
NCI-H2087,1.03,1.14,1.06,0.828,0.622,0.576,0.576,0.469,0.259,0.279,0.191,0.132,0.219,0.185,0.19,0.138,0.842,0.844,0.932,
NCI-H2126,,0.597,0.548,0.419,0.872,0.851,0.729,0.718,0.841,0.691,0.674,0.481,0.569,0.467,0.441,0.496,0.505,0.396,0.4,0.379
NCI-H2228,0.515,0.75,0.557,0.514,0.678,0.701,0.537,0.604,0.237,0.164,0.169,0.142,0.436,0.708,0.49,0.381,0.385,0.405,0.351,0.348
NCI-H2347,1.03,1.04,,0.834,0.601,0.587,0.526,0.562,0.58,0.49,0.52,0.535,0.268,0.482,0.275,0.285,0.699,0.545,0.827,0.655

# From the supplement of paper PMC10307832
